Test results: ChEMBL document CHEMBL1153154, “A single step purification for autolytic zinc proteinases” (Bioorg Med Chem Lett, 2010)

Tests used:
Stromelysin-1 [1] = target: T1, Stromelysin-1 (Homo sapiens, UniProt P08254); assay: Binding affinity to stromelysin-1 catalytic domain
Stromelysin-1 [2] = target: T1, Stromelysin-1; assay: Binding affinity to stromelysin-1 catalytic domain expressed in Escherichia coli BL21 (DE3) by isothermal titration […]

T1 sequence (P08254 whole entry, the tested form may be a part): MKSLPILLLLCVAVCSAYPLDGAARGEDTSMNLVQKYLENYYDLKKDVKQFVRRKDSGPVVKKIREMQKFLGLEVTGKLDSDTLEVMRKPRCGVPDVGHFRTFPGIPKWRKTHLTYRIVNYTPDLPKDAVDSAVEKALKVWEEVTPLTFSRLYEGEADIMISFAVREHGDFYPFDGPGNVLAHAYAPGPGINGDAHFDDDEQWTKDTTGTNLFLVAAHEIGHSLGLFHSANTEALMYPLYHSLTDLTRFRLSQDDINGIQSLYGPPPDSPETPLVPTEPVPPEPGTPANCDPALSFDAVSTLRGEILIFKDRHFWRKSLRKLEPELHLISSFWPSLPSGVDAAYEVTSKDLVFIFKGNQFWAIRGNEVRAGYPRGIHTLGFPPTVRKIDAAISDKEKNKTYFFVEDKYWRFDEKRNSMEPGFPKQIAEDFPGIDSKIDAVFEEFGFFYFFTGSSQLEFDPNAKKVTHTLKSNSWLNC

Kd (Stromelysin-1 [1]) [nM] | Kd (Stromelysin-1 [2]) [nM] | SMILES
113 | 43 | COc1ccc(S(=O)(=O)N[C@@H](C(=O)NO)C(C)C)cc1
100 | 110 | N#Cc1ccc(-c2ccc(OCCC(=O)NO)cc2)cc1
11000 | 17000 | N#Cc1ccc(-c2ccc(OCCCCC(=O)NO)cc2)cc1
